Reference: US20240287124A1, “PRODRUGS OF 4'-SUBSTITUTED NUCLEOSIDE REVERSE TRANSCRIPTASE INHIBITORS” (Merck Sharp & Dohme LLC, priority 2023, published 2024)
Values after ≈ are worked out from the molar mass of the structure shown. Where two headings read alike, the source gives them in different places.

Tests used:
[1] = Aqueous solubility in PBS, pH 7.4; format: physicochemical; details: for solubility at 24 h: phosphate buffered saline, pH 7.4, aqueous buffer, thermodynamic from solid, pH 7.4 phosphate buffered saline, amorphous or crystalline material, read-out: Aqu. Solubility
Method: Aqueous solubility of the compounds was determined by suspending excess solid (typically 0.3-0.5 mg) in PBS, pH 7.4, at a concentration of 0.5 mg/mL. The suspension was vortexed for 10-30 seconds to wet the material and stirred at 600 rpm for 24 hours. For analysis by UPLC, 150 μL aliquot sample was transferred into a […] PVDF spin filter and centrifuged at 14,000 rpm for 5 minutes. 100 μL of the filtrate was diluted with 100 μL 1:1 Acetonitrile (ACN):H2O. The resultant samples were analyzed using UPLC and quantified against a standard curve of the compound of interest dissolved in 1:1 ACN:H2O. The retains of the solids were checked by XRPD and PLM to determine if the phase of the material was crystalline or amorphous.

[2] = test system: HIV-1 wild-type (R8) virus; assay: Viral KINetics in Green cells (VIKING) assay, HIV-1 replication in MT4-GFP reporter cells; format: cell-based
Method: Antiviral potency of the compounds was determined based on their ability to block HIV-1 replication in a GFP reporter cell line; this assay is referred to as Viral KINetics in Green cells or VIKING assay. HIV-1 replication was monitored using MT4-gag-GFP clone D3 (hereafter designate MT4-GFP) cells, which are MT4 cells modified to harbor a GFP reporter gene, the expression of which is dependent on the HIV-1 proteins tat and rev. (MT4 is a human T-cell line that is particularly sensitive to HIV-1 replication.) HIV-1 infection of MT4-GFP cells results in GFP expression approximately 24 h post-infection. MT4-GFP cells were maintained at 37° C./5% CO2/90% relative humidity in RPMI 1640 supplemented with 10% fetal bovine serum, 100 U/mL penicillin/streptomycin, and […] G418 to maintain the reporter gene. For infections, MT4-GFP cells were placed in the same medium lacking G418 and infected overnight with HIV-1 wild-type (R8) virus at an approximate multiplicity of infection of 0.01 in the same incubation conditions. Cells were then washed and resuspended in RPMI 1640 containing 10% normal human serum at 2×10^5 cells/mL. Compound plates were prepared by dispensing compounds dissolved in DMSO into wells of 384-well poly D lysine-coated plates (0.2 μl/well) using an ECHO acoustic dispenser. Each compound was tested in a 10-point serial 3-fold dilution (typical final concentrations: 4 μM-0.2 nM). Controls included no inhibitor (DMSO only) and a combination of three antiviral agents as a positive control (efavirenz, indinavir, and an integrase strand transfer inhibitor at final concentrations of 4 μM each). Infected cells were added (50 μL/well) to compound plates and were maintained at 37° C./5% CO2/90% relative humidity. Infected cells were quantified at two time points, approximately 48 h and 72 h post-infection, by counting the number of green cells in each well using an Acumen eX3 scanner. The increase in the number of green cells over ˜24 h period gives the reproductive ratio, R, which is calculated by dividing the number of green cells at 72 h over those at 48 h post-infection. The percent inhibition caused by a test compound is calculated using the following formula: […]
The dose-response curves of each test compound were plotted as % inhibition versus the compound concentration. IC50 values were determined by non-linear 4-parameter fitting of the dose-response curves.

[3] = Human immunodeficiency virus 1, 10% normal human serum, MT4-GFP cells, HIV-1 wild-type (R8), read-out: Viking (10% NHS), IC50

Structure (SMILES) | solubility at 24 h [1] [µg/mL] | IC50 [2, 3] [nM] | solubility ([1]; water, in water) [µg/mL] | IC50 ([2]; Human immunodeficiency virus 1, parent compound, read-out: IC50 in the Viking assay) [nM]
C#C[C@]1(COCOC(=O)OC(C)C)O[C@@H](n2ccc3c(N)nc(Cl)nc32)C[C@@H]1O [Example 133] | 341 (≈ 803 µM) | 2.7 | – | –
C#C[C@]1(CO)O[C@@H](n2ccc3c(N)nc(Cl)nc32)C[C@@H]1O [Compound A, (2R,3S,5R)-5-(4-amino-2-chloro-7H-pyrrolo[2,3-d]pyrimidin-7-yl)-2-ethynyl-2-(hydroxymethyl)tetrahydrofuran-3-ol, reference compound] | – | – | 500 (≈ 1620 µM) | 3.3
C#C[C@]1(COC(=O)c2ccccn2)O[C@@H](n2ccc3c(N)nc(Cl)nc32)C[C@@H]1OC(=O)c1ccccn1 [Example 49, (2R,3S,5R)-5-(4-amino-2-chloro-7H-pyrrolo[2,3-d]pyrimidin-7-yl)-2-ethynyl-2-((picolinoyloxy)methyl)tetrahydrofuran-3-yl picolinate] | 49 (≈ 94.4 µM) | 7.5 | – | –
C#C[C@]1(COC(=O)Cc2ccc(F)cc2)O[C@@H](n2ccc3c(N)nc(Cl)nc32)C[C@@H]1OC(=O)Cc1ccc(F)cc1 [Example 29, (2R,3S,5R)-5-(4-amino-2-chloro-7H-pyrrolo[2,3-d]pyrimidin-7-yl)-2-ethynyl-2-((2-(4-fluorophenyl)acetoxy)methyl)tetrahydrofuran-3-yl 2-(4-fluorophenyl)acetate] | < 1 | 5.8 | – | –
C#C[C@]1(COC(=O)OCc2ccccc2)O[C@@H](n2ccc3c(N)nc(Cl)nc32)C[C@@H]1OC(=O)CCC [Example 194] | 2.3 (≈ 4.48 µM) | 17 | – | –
C#C[C@]1(COC(=O)OCCCCC[C@@H]2SC[C@@H]3NC(=O)N[C@@H]32)O[C@@H](n2ccc3c(N)nc(Cl)nc32)C[C@@H]1OC(=O)OCCCCC[C@@H]1SC[C@@H]2NC(=O)N[C@@H]21 [Example 207] | 1.2 (≈ 1.46 µM) | 21 | – | –
C#C[C@]1(COC(=O)Cc2ccc(Br)cc2)O[C@@H](n2ccc3c(N)nc(Cl)nc32)C[C@@H]1OC(=O)Cc1ccc(Br)cc1 [Example 227] | < 1 | 12 | – | –
C#C[C@]1(CO)O[C@@H](n2ccc3c(N)nc(Cl)nc32)C[C@@H]1OC(=O)Cc1ccc(Cl)cc1 [Example 32, (2R,3S,5R)-5-(4-amino-2-chloro-7H-pyrrolo[2,3-d]pyrimidin-7-yl)-2-ethynyl-2-(hydroxymethyl)tetrahydrofuran-3-yl 2-(4-chlorophenyl)acetate] | 3.7 (≈ 8.02 µM) | 5.1 | – | –
C#C[C@]1(COCOC(=O)c2ccccc2)O[C@@H](n2ccc3c(N)nc(Cl)nc32)C[C@@H]1O [Example 51] | 309 (≈ 698 µM) | 2.2 | – | –
C#C[C@]1(CO)O[C@@H](n2ccc3c(N)nc(Cl)nc32)C[C@@H]1OC(=O)OCC1CCCCC1 [Example 154] | < 1 | 3.5 | – | –
C#C[C@]1(CO)O[C@@H](n2ccc3c(NC(=O)Cc4ccccc4)nc(Cl)nc32)C[C@@H]1O [Example 199] | 51 (≈ 119 µM) | 230 | – | –
C#C[C@]1(CO)O[C@@H](n2ccc3c(N)nc(Cl)nc32)C[C@@H]1OC(=O)OCCc1ccccc1 [Example 64, (2R,3S,5R)-5-(4-amino-2-chloro-7H-pyrrolo[2,3-d]pyrimidin-7-yl)-2-ethynyl-2-(hydroxymethyl)tetrahydrofuran-3-yl phenethyl carbonate] | < 1 | 4.6 | – | –
C#C[C@]1(COC(=O)OCCCCCCCCCC)O[C@@H](n2ccc3c(N)nc(Cl)nc32)C[C@@H]1O [Example 18, ((2R,3S,5R)-5-(4-amino-2-chloro-7H-pyrrolo[2,3-d]pyrimidin-7-yl)-2-ethynyl-3-hydroxytetrahydrofuran-2-yl)methyl decyl carbonate] | 0.45 (≈ 0.913 µM) | 2.1 | – | –
C#C[C@]1(CO)O[C@@H](n2ccc3c(N)nc(Cl)nc32)C[C@@H]1OC(=O)OCCC [Example 80] | 305 (≈ 773 µM) | 10 | – | –
C#C[C@]1(CO)O[C@@H](n2ccc3c(N)nc(Cl)nc32)C[C@@H]1OC(=O)OCc1ccccc1 [Example 27, (2R,3S,5R)-5-(4-amino-2-chloro-7H-pyrrolo[2,3-d]pyrimidin-7-yl)-2-ethynyl-2-(hydroxymethyl)tetrahydrofuran-3-ylbenzyl carbonate] | < 1 | 3.1 | – | –
C#C[C@]1(COC(=O)OCc2ccccc2)O[C@@H](n2ccc3c(N)nc(Cl)nc32)C[C@@H]1OC(C)=O [Example 193] | 1.2 (≈ 2.47 µM) | 29 | – | –
C#C[C@]1(COCOC(=O)C(C)C)O[C@@H](n2ccc3c(N)nc(Cl)nc32)C[C@@H]1O [Example 54, (((2R,3S,5R)-5-(4-amino-2-chloro-7H-pyrrolo[2,3-d]pyrimidin-7-yl)-2-ethynyl-3-hydroxytetrahydrofuran-2-yl)methoxy)methyl isobutyrate] | 247 (≈ 604 µM) | 1.5 | – | –
C#C[C@]1(COC(=O)CCCCCCCCC)O[C@@H](n2ccc3c(N)nc(Cl)nc32)C[C@@H]1OC(C)=O [Example 48, ((2R,3S,5R)-3-acetoxy-5-(4-amino-2-chloro-7H-pyrrolo[2,3-d]pyrimidin-7-yl)-2-ethynyltetrahydrofuran-2-yl)methyl decanoate] | < 1 | 35 | – | –
C#C[C@]1(CO)O[C@@H](n2ccc3c(N)nc(Cl)nc32)C[C@@H]1OC(=O)OCc1oc(=O)oc1C [Example 56, (2R,3S,5R)-5-(4-amino-2-chloro-7H-pyrrolo[2,3-d]pyrimidin-7-yl)-2-ethynyl-2-(hydroxymethyl)tetrahydrofuran-3-yl((5-methyl-2-oxo-1,3-dioxol-4-yl)methyl) carbonate] | 122 (≈ 262 µM) | 2.3 | – | –
C#C[C@]1(COC(=O)OCCCC)O[C@@H](n2ccc3c(N)nc(Cl)nc32)C[C@@H]1OC(=O)OCC [Example 216] | < 1 | 21 | – | –
C#C[C@]1(COC(=O)OCCCCCC)O[C@@H](n2ccc3c(N)nc(Cl)nc32)C[C@@H]1O [Example 120] | 108 (≈ 247 µM) | 3.8 | – | –
C#C[C@]1(COC(=O)C2CCCCC2)O[C@@H](n2ccc3c(N)nc(Cl)nc32)C[C@@H]1O [Example 88] | 157 (≈ 375 µM) | 4.4 | – | –
C#C[C@]1(CO)O[C@@H](n2ccc3c(N)nc(Cl)nc32)C[C@@H]1OC(=O)OCCCC [Example 82] | 11 (≈ 26.9 µM) | 4 | – | –
C#C[C@]1(COC(=O)OCc2cccnc2)O[C@@H](n2ccc3c(N)nc(Cl)nc32)C[C@@H]1CC(=O)CCCc1ccccc1 [Example 173] | < 1 | 6.2 | – | –
C#C[C@]1(CO)O[C@@H](n2ccc3c(N)nc(Cl)nc32)C[C@@H]1OC(=O)Cc1ccc(Br)cc1 [Example 181] | < 1 | 4 | – | –
C#C[C@]1(CO)O[C@@H](n2ccc3c(N)nc(Cl)nc32)C[C@@H]1OC(=O)CC [Example 65, (2R,3S,5R)-5-(4-amino-2-chloro-7H-pyrrolo[2,3-d]pyrimidin-7-yl)-2-ethynyl-2-(hydroxymethyl)tetrahydrofuran-3-yl propionate] | 224 (≈ 614 µM) | 26 | – | –
C#C[C@]1(CO)O[C@@H](n2ccc3c(N)nc(Cl)nc32)C[C@@H]1OC(=O)C1CCCCC1 [Example 77] | 14 (≈ 33.4 µM) | 5 | – | –
